Test results: patent publication US5447919A, “Sulfated oligosaccharides” (Hoffmann-La Roche Inc., priority 1991, dated 1995)

What was measured:
[1] = system: smooth muscle cells of rats; assay: Anti-proliferative activity in smooth muscle cell culture (% inhibition of growth after 7 days); type: cell-based, rat; conditions: for Anti-proliferative activity % inhibition: rat smooth muscle cells, 7 days, test substance 100 mg/ml as printed (100 μl/ml), vs non-inhibited growth
Method: The anti-proliferative activity of the substances was determined in cell cultures as follows: smooth muscle cells of rats (cultivated in DMEM with 10% FCS at 37° C. and 5% CO2) were applied to cell culture plates with a density of 8×10^3 cells/well. After 4 hours, the number of adhered cells was determined and the substances to be tested ([…]) were added. Cells to which test substance was not added served as a comparison and heparin ([…]) served as a positive control. The cells were incubated for 7 days and then the cell number was determined. The antiproliferative activity of the individual substances was calculated as the % inhibition in comparison to non-inhibited growth: [formula] wherein cell number(d=0) =cell number after 4 h […]
cell number(-) =cell number to which test substances was not added, after 7 days. cell number (inhib) =cell number with […] of the test substance

[2] = biological target: Factor Xa (Bos taurus, UniProt P00743); assay: anti-Xa Clotting Assay; type: biochemical; conditions: concentration which leads to a coagulation time double the control value; citrated plasma
Factor Xa, sequence (P00743 234-492 limits assumed): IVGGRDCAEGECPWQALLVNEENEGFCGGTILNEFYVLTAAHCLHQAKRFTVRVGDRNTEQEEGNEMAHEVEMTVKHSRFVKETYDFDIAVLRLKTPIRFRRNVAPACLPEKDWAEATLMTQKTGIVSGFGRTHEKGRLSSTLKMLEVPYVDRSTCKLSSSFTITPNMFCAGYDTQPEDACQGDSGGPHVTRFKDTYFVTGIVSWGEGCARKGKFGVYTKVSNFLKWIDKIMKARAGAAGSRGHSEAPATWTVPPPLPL
Factor Xa, sequence (P00743 41-180 partner limits assumed): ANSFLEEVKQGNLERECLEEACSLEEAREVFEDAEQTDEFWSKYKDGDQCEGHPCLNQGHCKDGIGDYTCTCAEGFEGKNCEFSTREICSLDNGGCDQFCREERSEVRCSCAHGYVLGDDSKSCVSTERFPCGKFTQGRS
Method: (§1) The blood coagulation-ihibiting activity was determined as follows:
anti-Xa Clotting Assay: 25 μl of citrated plasma having various concentrations of test compound are mixed with 75 μl of Factor Xa (Diagnostic Reagents, Thame, Oxon, Great Britain) diluted 1:100 in 0.63% citrate buffer (pH 7.3) which contains 41 mM imidazole, 82 mM NaCl and 0.1% albumin. After warming to 37° C. for 2 minutes, 200 μl of a 1:1 mixture of Factor X Deficient Plasma (Diagnostic Reagents) and Platelet Substitute (Diagnostic Reagents) are added and the mixture is incubated at 37° C. for 20 seconds. After the addition of 100 μl of pre-warmed 50 mM calcium chloride solution, the coagulation time is measured in a Fibrometer.
(§2) The activity of the test compound is given as the IC50, which is that concentration [μg/ml] which leads to a coagulation time which is double the control value.

[3] = system: citrated human plasma; assay: aPTT (activated partial thromboplastin time) Test; type: biochemical; conditions: concentration which leads to a coagulation time double the control value
Method: as §1
aPTT (activated partial thromboplastin time) Test (see Walenga et al., CRC Critical Reviews in Laboratory Sciences 22 (4) 361-389(1986)): 100 μl of citrated human plasma, which contains various concentrations of test compound, are incubated at 37° C. for 8 minutes with 100 μl of Activated Thrombofax (Ortho Diagnostics, Raritan, N.J., U.S.A.). 100 μl of prewarmed 25 mM calcium chloride solution are then added and the coagulation time is measured in a Fibrometer Coagulation Timer (Becton, Dickinson Basle).
as §2

Substance	anti-proliferative activity (in words) ([1]; summary of test results of Table 1)	Anti-proliferative activity % inhibition [1] [%]	Anti-coagulation activity IC50, Coagulation inhibition Xa [2] [µg/mL]	Anti-coagulation activity IC50, Coagulation inhibition aPTT [3] [µg/mL]
Heparin [reference compound]	anti-proliferatively active			
sulfated melezitese [Example 2]		25	250	150
sulfated raffinose [Example 1]		41	> 1000	27
